Experimental data reported in BindingDB's records for doi:10.1021/jm00121a001 (University of Utah, 1989).

Assay: Inhibition of compound against Guanine-7-methyl transferase

Q: For `Nc1nc(O)c2cc(CSC[C@H]3O[C@@H](n4cnc5c(N)ncnc54)[C@H](O)[C@@H]3O)[nH]c2n1`, which Ki is on record?
A: Its Ki is 93 µM.
